Consider 25 compounds from patent publication US9573957B2 (Boehringer Ingelheim International GmbH, priority 2013, dated 2017).

For orientation: IC50 means the concentration that inhibits the measured activity by half.

The target in one test is human LTA4 hydrolase (Homo sapiens (Human), UniProt P09960). The test is described as follows: LTA4H Enzyme assay (peptidase, Arg-AMC cleavage). As to conditions: LTA4H Enzyme 1 nM, Arg-AMC substrate 50 μM, room temperature 1 h, fluorescence. It is filed as biochemical. As to the method:
The compounds of the invention are assessed for the ability to interact with human LTA4 hydrolase in an enzymatic assay that measures the ability of the enzyme to cleave the peptide bond of arginyl-aminomethylcoumarin (Arg-AMC). LTA4H Enzyme (1 nM final), Arg-AMC substrate (50 μM final), and compound are combined in a reaction buffer (50 mM Tris-HCl (pH 7.5), 100 mM KCl, 0.5% bovine serum albumin) at room temperature for 1 h. The formation of product is assessed by measuring the fluorescence of aminomethylcoumarin product (excitation wavelength 380 nm/emission wavelength 460 nm).

The test system of test [1] is synthesis of LTB4 in human whole blood. The experiment in a line: LTB4 production inhibition assay in human whole blood (HWB). The format is cell-based. As to conditions: heparinized human whole blood, 15 min at 37° C., Calcimycin 20 μM 30 min, plasma LTB4 by HTRF. As to the method: The compounds of the invention are additionally tested in a human whole blood (HWB) assay to determine their ability to inhibit the synthesis of LTB4 in a cellular system. Compounds are combined with heparinized human whole blood and incubated for 15 minutes at 37° C. Calcimycin (20 μM final, prepared in phosphate-buffered saline, pH 7.4) is then added and the mixture is incubated for another 30 minutes at 37° C. The samples are centrifuged for 5 min at low speed (1500×g) and the plasma layer is removed. Plasma LTB4 concentrations are then measured using an antibody-based homogenous time-resolved fluorescence method (CisBio, Bedford, Mass.).

Sequence of human LTA4 hydrolase (P09960 whole entry): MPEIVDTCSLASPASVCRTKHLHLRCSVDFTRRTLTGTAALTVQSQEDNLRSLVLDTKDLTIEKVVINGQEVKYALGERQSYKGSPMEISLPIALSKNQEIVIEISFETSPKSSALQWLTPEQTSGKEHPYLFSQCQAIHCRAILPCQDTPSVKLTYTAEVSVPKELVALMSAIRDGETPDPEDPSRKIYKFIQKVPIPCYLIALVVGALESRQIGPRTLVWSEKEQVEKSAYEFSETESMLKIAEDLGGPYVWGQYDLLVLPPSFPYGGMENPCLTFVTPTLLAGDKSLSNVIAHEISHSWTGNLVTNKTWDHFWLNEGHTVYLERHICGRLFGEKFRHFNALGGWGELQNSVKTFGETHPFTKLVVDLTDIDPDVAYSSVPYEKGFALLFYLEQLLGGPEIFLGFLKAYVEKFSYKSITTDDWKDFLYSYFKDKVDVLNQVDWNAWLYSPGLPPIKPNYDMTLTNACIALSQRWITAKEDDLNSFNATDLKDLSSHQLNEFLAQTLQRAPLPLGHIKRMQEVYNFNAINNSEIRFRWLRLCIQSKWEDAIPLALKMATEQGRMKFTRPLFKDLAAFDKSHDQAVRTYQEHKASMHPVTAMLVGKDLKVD

Take `CC(C)(O)C(=O)N1CCN(Cc2ccc3cc(Oc4ncc(-c5ccn[nH]5)cn4)ccc3c2)CC1` [Example 39, 2-Hydroxy-2-methyl-1-(4-{6-[5-(2H-pyrazol-3-yl)-pyrimidin-2-yloxy]-naphthalen-2-ylmethyl}-piperazin-1-yl)-propan-1-one]: the IC50 at human LTA4 hydrolase is 2.2 nM; in test [1] it was 320 nM.
Taken in the same sequence, the figures for `O=C(C1CC1)N1CCN(Cc2ccc3cc(Oc4ncc(-c5ccn[nH]5)cn4)ccc3c2)CC1` [Example 40, Cyclopropyl-(4-{6-[5-(2H-pyrazol-3-yl)-pyrimidin-2-yloxy]-naphthalen-2-ylmethyl}-piperazin-1-yl)-methanone] were 1.8 nM and 340 nM.
For `CC(C)C(=O)N1CCN(Cc2ccc3cc(Oc4ncc(-c5ccn[nH]5)cn4)ccc3c2)CC1` [Example 41, 2-Methyl-1-(4-{6-[5-(2H-pyrazol-3-yl)-pyrimidin-2-yloxy]-naphthalen-2-ylmethyl}-piperazin-1-yl)-propan-1-one] the same measures were 0.97 nM and 430 nM.
Taken in the same sequence, the figures for `OC1CN(Cc2ccc3cc(Oc4ccc(-c5ccn[nH]5)cn4)ccc3n2)C1` [Example 42, 1-{6-[5-(2H-Pyrazol-3-yl)-pyridin-2-yloxy]-quinolin-2-ylmethyl}-azetidin-3-ol] were 0.92 nM and 190 nM.
In the case of `N#CCCNCc1ccc2cc(Oc3ccc(-c4ccn[nH]4)cn3)ccc2n1` [Example 43, 3-({6-[5-(2H-Pyrazol-3-yl)-pyridin-2-yloxy]-quinolin-2-ylmethyl}-amino)-propionitrile], the IC50 against human LTA4 hydrolase is 2 nM; in test [1] it was 680 nM.
Take `CC[C@H](CC#N)NCc1ccc2cc(Oc3ccc(-c4ccn[nH]4)cn3)ccc2n1` [Example 44, (R)-3-({6-[5-(2H-Pyrazol-3-yl)-pyridin-2-yloxy]-quinolin-2-ylmethyl}-amino)-pentanenitrile]: the IC50 was found to be 2.7 nM at human LTA4 hydrolase and 870 nM in test [1].
`O[C@@H]1CCN(Cc2ccc3cc(Oc4ncc(-c5ccn[nH]5)cn4)ccc3c2)C1` [Example 45, (R)-1-{6-[5-(2H-Pyrazol-3-yl)-pyrimidin-2-yloxy]-naphthalen-2-ylmethyl}-pyrrolidin-3-ol]: the results for the IC50 (on human LTA4 hydrolase; in test [1]) were 2.4 nM and 310 nM, respectively.
Taken in the same sequence, the figures for `O[C@H]1CCN(Cc2ccc3cc(Oc4ncc(-c5ccn[nH]5)cn4)ccc3c2)C1` [Example 46, (S)-1-{6-[5-(2H-Pyrazol-3-yl)-pyrimidin-2-yloxy]-naphthalen-2-ylmethyl}-pyrrolidin-3-ol] were 2.5 nM and 230 nM.
For `CC1(O)CN(Cc2ccc3cc(Oc4ncc(-c5ccn[nH]5)cn4)ccc3c2)C1` [Example 47, 3-Methyl-1-{6-[5-(2H-pyrazol-3-yl)-pyrimidin-2-yloxy]-naphthalen-2-ylmethyl}-azetidin-3-ol] the same measures were 1.9 nM and 210 nM.
Turning to `O=C(CO)N1CCN(Cc2ccc3cc(Oc4ncc(-c5ccn[nH]5)cn4)ccc3c2)CC1` [Example 48, 2-Hydroxy-1-(4-{6-[5-(2H-pyrazol-3-yl)-pyrimidin-2-yloxy]-naphthalen-2-ylmethyl}-piperazin-1-yl)-ethanone], the IC50 was determined as 2.9 nM against human LTA4 hydrolase and 610 nM in test [1].
As for `OC1CN(Cc2ccc3cc(Oc4ncc(-c5ccn[nH]5)cn4)ccc3c2)C1` [Example 49, 1-{6-[5-(2H-Pyrazol-3-yl)-pyrimidin-2-yloxy]-naphthalen-2-ylmethyl}-azetidin-3-ol], the IC50 was determined as 2.2 nM at human LTA4 hydrolase and 210 nM in test [1].
For `N#CCC(=O)N1CC2CCC(C1)N2Cc1ccc2cc(Oc3ccc(-c4ccn[nH]4)cn3)ccc2n1` [Example 50, 3-Oxo-3-(8-{6-[5-(2H-pyrazol-3-yl)-pyridin-2-yloxy]-quinolin-2-ylmethyl}-3,8-diaza-bicyclo[3.2.1]oct-3-yl)-propionitrile] the same measures were 0.69 nM and 170 nM.
Regarding `CC(C)(C#N)C(=O)N1CC2CCC(C1)N2Cc1ccc2cc(Oc3ccc(-c4ccn[nH]4)cn3)ccc2n1` [Example 51, 2,2-Dimethyl-3-oxo-3-(8-{6-[5-(2H-pyrazol-3-yl)-pyridin-2-yloxy]-quinolin-2-ylmethyl}-3,8-diaza-bicyclo[3.2.1]oct-3-yl)-propionitrile], the 50% inhibitory concentration (IC50) against human LTA4 hydrolase worked out at 0.73 nM; in test [1], 210 nM.
For `CO[C@H](C)C(=O)N1CC2CCC(C1)N2Cc1ccc2cc(Oc3ccc(-c4ccn[nH]4)cn3)ccc2n1` [Example 52, (R)-2-Methoxy-1-(8-{6-[5-(2H-pyrazol-3-yl)-pyridin-2-yloxy]-quinolin-2-ylmethyl}-3,8-diaza-bicyclo[3.2.1]oct-3-yl)-propan-1-one] the same measures were 0.77 nM and 150 nM.
Take `CO[C@@H](C)C(=O)N1CC2CCC(C1)N2Cc1ccc2cc(Oc3ccc(-c4ccn[nH]4)cn3)ccc2n1` [Example 53, (S)-2-Methoxy-1-(8-{6-[5-(2H-pyrazol-3-yl)-pyridin-2-yloxy]-quinolin-2-ylmethyl}-3,8-diaza-bicyclo[3.2.1]oct-3-yl)-propan-1-one]: the IC50 worked out at 0.66 nM against human LTA4 hydrolase and 110 nM in test [1].
For `O=C([C@H]1CCCO1)N1CC2CCC(C1)N2Cc1ccc2cc(Oc3ccc(-c4ccn[nH]4)cn3)ccc2n1` [Example 54, (8-{6-[5-(2H-Pyrazol-3-yl)-pyridin-2-yloxy]-quinolin-2-ylmethyl}-3,8-diaza-bicyclo[3.2.1]oct-3-yl)-(R)-tetrahydro-furan-2-yl-methanone] the same measures were 1.3 nM and 190 nM.
Taken in the same sequence, the figures for `O=C([C@@H]1CCCO1)N1CC2CCC(C1)N2Cc1ccc2cc(Oc3ccc(-c4ccn[nH]4)cn3)ccc2n1` [Example 55, (8-{6-[5-(2H-Pyrazol-3-yl)-pyridin-2-yloxy]-quinolin-2-ylmethyl}-3,8-diaza-bicyclo[3.2.1]oct-3-yl)-(S)-tetrahydro-furan-2-yl-methanone] were 1.7 nM and 280 nM.
Taken in the same sequence, the figures for `O=C(N1CC2CCC(C1)N2Cc1ccc2cc(Oc3ccc(-c4ccn[nH]4)cn3)ccc2n1)C1(O)CC1` [Example 56, (1-Hydroxy-cyclopropyl)-(8-{6-[5-(2H-pyrazol-3-yl)-pyridin-2-yloxy]-quinolin-2-ylmethyl}-3,8-diaza-bicyclo[3.2.1]oct-3-yl)-methanone] were 0.53 nM and 150 nM.
In the case of `C[C@H](O)C(=O)N1CC2CCC(C1)N2Cc1ccc2cc(Oc3ccc(-c4ccn[nH]4)cn3)ccc2n1` [Example 57, (S)-2-Hydroxy-1-(8-{6-[5-(2H-pyrazol-3-yl)-pyridin-2-yloxy]-quinolin-2-ylmethyl}-3,8-diaza-bicyclo[3.2.1]oct-3-yl)-propan-1-one], the values for the IC50 (at human LTA4 hydrolase; in test [1]) were 0.43 nM and 98 nM, respectively.
For the compound `CC(C)(O)C(=O)N1CC2CCC(C1)N2Cc1ccc2cc(Oc3ccc(-c4ccn[nH]4)cn3)ccc2n1` [Example 58, 2-Hydroxy-2-methyl-1-(8-{6-[5-(2H-pyrazol-3-yl)-pyridin-2-yloxy]-quinolin-2-ylmethyl}-3,8-diaza-bicyclo[3.2.1]oct-3-yl)-propan-1-one], the IC50 at human LTA4 hydrolase was found to be 0.45 nM; in test [1], 120 nM.
`C[C@@H](O)C(=O)N1CC2CCC(C1)N2Cc1ccc2cc(Oc3ccc(-c4ccn[nH]4)cn3)ccc2n1` [Example 59, (R)-2-Hydroxy-1-(8-{6-[5-(2H-pyrazol-3-yl)-pyridin-2-yloxy]-quinolin-2-ylmethyl}-3,8-diaza-bicyclo[3.2.1]oct-3-yl)-propan-1-one]: the IC50 on human LTA4 hydrolase was 0.54 nM; in test [1] it was 110 nM.
Taken in the same sequence, the figures for `COCC(=O)N1CC2CCC(C1)N2Cc1ccc2cc(Oc3ccc(-c4ccn[nH]4)cn3)ccc2n1` [Example 60, 2-Methoxy-1-(8-{6-[5-(2H-pyrazol-3-yl)-pyridin-2-yloxy]-quinolin-2-ylmethyl}-3,8-diaza-bicyclo[3.2.1]oct-3-yl)-ethanone] were 0.33 nM and 110 nM.
With `O=C1[C@@H](O)CCN1C1CCN(C[C@@H]2Cc3ccc(Oc4ccc(-c5ccn[nH]5)cn4)cc3O2)CC1` [Example 61, (S)-3-Hydroxy-1-(1-{(S)-6-[5-(2H-pyrazol-3-yl)-pyridin-2-yloxy]-2,3-dihydro-benzofuran-2-ylmethyl}-piperidin-4-yl)-pyrrolidin-2-one], the IC50 at human LTA4 hydrolase amounted to 1.2 nM; in test [1], 220 nM.
For the compound `O=C1[C@@H](O)CCN1C1CCN(C[C@H]2Cc3ccc(Oc4ccc(-c5ccn[nH]5)cn4)cc3O2)CC1` [Example 62, (S)-3-Hydroxy-1-(1-{(R)-6-[5-(2H-pyrazol-3-yl)-pyridin-2-yloxy]-2,3-dihydro-benzofuran-2-ylmethyl}-piperidin-4-yl)-pyrrolidin-2-one], the IC50 against human LTA4 hydrolase worked out at 0.77 nM; in test [1] it was 340 nM.
In the case of `O=C1CCCN1C1CCN(C[C@H]2Cc3ccc(Oc4ccc(-c5ccn[nH]5)cn4)cc3O2)CC1` [Example 63, 1-(1-{(R)-6-[5-(2H-Pyrazol-3-yl)-pyridin-2-yloxy]-2,3-dihydro-benzofuran-2-ylmethyl}-piperidin-4-yl)-pyrrolidin-2-one], the IC50 was 0.66 nM on human LTA4 hydrolase and 190 nM in test [1].
